Test results: PubChem BioAssay AID1963438 (Molecular Pharmacology Branch, DTP, NCI, 2024)
Blank lines part the entries; values can stand above or below the compound they belong to.

Tested on: NCI-H510 multicellular tumor spheroid growth, % test/control
Experiment: Anticancer human tumor NCI-H510 cell line growth inhibition [Asc];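 further: spheroids exposed to agents for 7 days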;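 on viability, T/C: 100% = DMSO vehicle control wells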
Conditions: for IC50: curve of first compound; for viability, T/C: stronger effect = lower value
Procedure: Multicellular complex tumor spheroid response to apoptosis pathway targeting inhibitors Alrizomadlin, Pelcitoclax, and Dasminapant in combination with a variety of drugs and investigational agents in selected tumor cell lines
The MDM2 inhibitor alrizomadlin, the Bcl-2/Bcl-xL inhibitor pelcitoclax, and the IAPs inhibitor dasminapant were evaluated both individually and in combination with standard of care and investigational anticancer small molecules within a complex spheroid model of solid tumors. . Complex spheroids include a stromal component modeled by human endothelial cells (HUVEC) and fibroblasts modeled by human mesenchymal stem cells (MSCs). The concentration ranges selected for each drug and investigational agent were based upon clinically achievable concentrations if the clinical Cmax of the agent was known.
Compounds. The drugs and investigational agents: alrizomadlin (APG-115; NSC831270), pelcitoclax (APG-1252; NSC835773), dasminapant (APG-1387;NSC834197), TAK-243 (NSC785004), copanlisib (NSC809693), olaparib (NSC753686), talazoparib (NSC767125), cobimetinib (NSC 768068), eltanexor (KPT-8602, NSC 794443), abemaciclib (NSC 768073), sotorasib (NSC818433), adagrasib (NSC 831453), MRTX-1133 (NSC 836407), Iadademestat (ORY1001, NSC 806812), and RMC-4630 (NSC839698), were obtained from the NCI Developmental Therapeutics Program Chemical Repository. The FDA-approved anticancer drug set is available from the Developmental Therapeutics Program at https://dtp.cancer.gov/organization/dscb/obtaining/available plates.htm. […] The stock solutions were prepared in dimethyl sulfoxide (DMSO, Sigma-Aldrich, St. Louis, MO, cat. D2650) at 800-fold the tested concentration and stored at -70 degrees C prior to their use. All drugs and investigational agents were tested over a range starting from a high concentration at or near the clinical Cmax and decreasing in half-log increments. If the clinical Cmax for an agent had not been determined, the highest concentration tested was 10 microM.
The patient-derived cancer (PDC) cell lines include five colon adenocarcinomas: 186277-243-T-J2-PDC, 616215-338-R-J1-PDC, 439559-082-T-J2-PDC, 463943-066-T-J2-PDC, and 519858-162-T-J1-PDC; three pancreatic carcinomas: 323965-272-R-J2-PDC, 521955-158-R6-J3-PDC, and 521955-158-R2-J5-PDC; two uterine sarcomas: 327498-152-R-J2-PDC and 993429-296-R-J1-PDC; two rhabdomyosarcomas: 755483-174-R-J1-PDC and 772245-204-R-J1-PDC; two soft tissue sarcomas: 126254-015-R-J1-PDC and 494315-158-R-J1-PDC; two malignant fibrous histiocytomas: 317291-083-R-J1-PDC and 596521-263-R-J1-PDC; two breast carcinomas: 171881-019-R-J1-PDC and 885512-296-R-J2-PDC; and one ovarian carcinoma: 6556581-035-R-J-PDC were obtained from the NCI PDMR, (https://pdmr.cancer.gov). The established cell lines HSSY-2 synovial sarcoma (RRID:CVCL 8719), SYO-1 synovial sarcoma (RRID:CVCL_7146), MPNST malignant peripheral neural sheath tumor were obtained from the Sloan Kettering Institute. The following established cell lines were purchased from the American Type Culture Collection (ATCC, Manassas, VA), Sor the received from the NCI repository:, PANC-1 pancreatic carcinoma (CRL-1469, RRID:CVCL_0480), OVCAR-5 ovarian carcinoma (RRID:CVCL_1628), OVCAR-8 ovarian carcinoma (RRID:CVCL_1629), , MCF-7 breast carcinoma (CRL-12584, RRID:CVCL_0031), MDA-MB-231 breast carcinoma (CRL-12532, RRID:CVCL_0062), NCI-H1876 small cell lung carcinoma (CRL-5902, RRID:CVCL_1503), NCI-H510A small cell lung carcinoma (HTB-184, RRID:CVCL_1565), NCI-H1417 (CRL-5869, RRID:CVCL_1469), and NCI-H196 small cell lung carcinoma (CRL-5823, RRID:CVCL_1509). Dr. Peter Houghton (Greehey Children's Cancer Research Institute, University of Texas Health Science Center, San Antonio, TX) provided Rh-18 rhabdomyosarcoma (RRID:CVCL_1659). Pooled donor human umbilical vein endothelial cells (HUVEC, Lonza, cat. CC-2519) and human mesenchymal stem cells (hMSC, Lonza, cat. PT-2501) were purchased from Lonza (Walkersville, MD).
Cell Culture. […]

IC50 (second compound 0.1 µM): > 10 µM
IC50 (second compound 0.316 µM): > 10 µM
IC50 (second compound 1 µM): > 10 µM
IC50 (second compound 3.16 µM): > 10 µM
IC50 (second compound 10 µM): 6.6 µM
SMILES: C#Cc1c(F)ccc2cc(O)cc(-c3ncc4c(N5CC6CCC(C5)N6)nc(OCC56CCCN5CC(F)C6)nc4c3F)c12 (stereo not given) + Cc1c(S(C)(=O)=O)c(-c2cc(F)cc(N3CCN(c4ccc(NS(=O)(=O)c5ccc(NC(CCN6CCC(C(=O)OCCCP(=O)(O)O)CC6)CSc6ccccc6)c(S(=O)(=O)C(F)(F)F)c5)cc4)CC3)c2)c(-c2ccc(Cl)cc2)n1C(C)C
viability, T/C (second compound 0.1 µM, first compound 0.0316 µM): 119%
viability, T/C (second compound 0.1 µM, first compound 0.1 µM): 121%
viability, T/C (second compound 0.1 µM, first compound 0.316 µM): 103%
viability, T/C (second compound 0.1 µM, first compound 1 µM): 81.1%
viability, T/C (second compound 0.1 µM, first compound 3.16 µM): 93.4%
viability, T/C (second compound 0.1 µM, first compound 10 µM): 109%
viability, T/C (second compound 0.316 µM, first compound 0.0316 µM): 112%
viability, T/C (second compound 0.316 µM, first compound 0.1 µM): 104%
viability, T/C (second compound 0.316 µM, first compound 0.316 µM): 105%
viability, T/C (second compound 0.316 µM, first compound 1 µM): 91.7%
viability, T/C (second compound 0.316 µM, first compound 3.16 µM): 89.9%
viability, T/C (second compound 0.316 µM, first compound 10 µM): 73%
viability, T/C (second compound 1 µM, first compound 0.0316 µM): 105%
viability, T/C (second compound 1 µM, first compound 0.1 µM): 121%
viability, T/C (second compound 1 µM, first compound 0.316 µM): 119%
viability, T/C (second compound 1 µM, first compound 1 µM): 109%
viability, T/C (second compound 1 µM, first compound 3.16 µM): 108%
viability, T/C (second compound 1 µM, first compound 10 µM): 73%
viability, T/C (second compound 3.16 µM, first compound 0.0316 µM): 108%
viability, T/C (second compound 3.16 µM, first compound 0.1 µM): 101%
viability, T/C (second compound 3.16 µM, first compound 0.316 µM): 110%
viability, T/C (second compound 3.16 µM, first compound 1 µM): 115%
viability, T/C (second compound 3.16 µM, first compound 3.16 µM): 109%
viability, T/C (second compound 3.16 µM, first compound 10 µM): 77%
viability, T/C (second compound 10 µM, first compound 0.0316 µM): 102%
viability, T/C (second compound 10 µM, first compound 0.1 µM): 89.3%
viability, T/C (second compound 10 µM, first compound 0.316 µM): 113%
viability, T/C (second compound 10 µM, first compound 1 µM): 70.3%
viability, T/C (second compound 10 µM, first compound 3.16 µM): 74.3%
viability, T/C (second compound 10 µM, first compound 10 µM): 38.5%

IC50 (second compound 0.01 µM): > 3 µM
IC50 (second compound 0.0316 µM): > 3 µM
IC50 (second compound 0.1 µM): > 3 µM
IC50 (second compound 0.316 µM): > 3 µM
IC50 (second compound 1 µM): > 3 µM
SMILES: CCN1C(C(=O)NC23CCC(C(=O)O)(CC2)CC3)C(c2cccc(Cl)c2F)C2(C(=O)Nc3cc(Cl)ccc32)C12CCCCC2 (stereo not given) + CNC(C)C(=O)NC1CN(S(=O)(=O)c2cccc(S(=O)(=O)N3CCC4CCC(C(=O)NC(c5ccccc5)c5ccccc5)N4C(=O)C(NC(=O)C(C)NC)C3)c2)CCC2CCC(C(=O)NC(c3ccccc3)c3ccccc3)N2C1=O
viability, T/C (second compound 0.01 µM, first compound 0.00949 µM): 130%
viability, T/C (second compound 0.01 µM, first compound 0.03 µM): 104%
viability, T/C (second compound 0.01 µM, first compound 0.0949 µM): 101%
viability, T/C (second compound 0.01 µM, first compound 0.3 µM): 96.7%
viability, T/C (second compound 0.01 µM, first compound 0.949 µM): 108%
viability, T/C (second compound 0.01 µM, first compound 3 µM): 104%
viability, T/C (second compound 0.0316 µM, first compound 0.00949 µM): 108%
viability, T/C (second compound 0.0316 µM, first compound 0.03 µM): 98.3%
viability, T/C (second compound 0.0316 µM, first compound 0.0949 µM): 97.8%
viability, T/C (second compound 0.0316 µM, first compound 0.3 µM): 117%
viability, T/C (second compound 0.0316 µM, first compound 0.949 µM): 131%
viability, T/C (second compound 0.0316 µM, first compound 3 µM): 90.9%
viability, T/C (second compound 0.1 µM, first compound 0.00949 µM): 108%
viability, T/C (second compound 0.1 µM, first compound 0.03 µM): 113%
viability, T/C (second compound 0.1 µM, first compound 0.0949 µM): 106%
viability, T/C (second compound 0.1 µM, first compound 0.3 µM): 101%
viability, T/C (second compound 0.1 µM, first compound 0.949 µM): 93.5%
viability, T/C (second compound 0.1 µM, first compound 3 µM): 121%
viability, T/C (second compound 0.316 µM, first compound 0.00949 µM): 95.3%
viability, T/C (second compound 0.316 µM, first compound 0.03 µM): 117%
viability, T/C (second compound 0.316 µM, first compound 0.0949 µM): 95.5%
viability, T/C (second compound 0.316 µM, first compound 0.3 µM): 109%
viability, T/C (second compound 0.316 µM, first compound 0.949 µM): 92.9%
viability, T/C (second compound 0.316 µM, first compound 3 µM): 107%
viability, T/C (second compound 1 µM, first compound 0.00949 µM): 96.6%
viability, T/C (second compound 1 µM, first compound 0.03 µM): 97.1%
viability, T/C (second compound 1 µM, first compound 0.0949 µM): 94.8%
viability, T/C (second compound 1 µM, first compound 0.3 µM): 99.2%
viability, T/C (second compound 1 µM, first compound 0.949 µM): 97.8%
viability, T/C (second compound 1 µM, first compound 3 µM): 115%
